The test system of assay [1] is Staphylococcus aureus (Sa) Newman strain. In words: MIC determination in Mueller-Hinton broth (CLSI) on Sa. The class given is cell-based. The conditions noted are these: Mueller-Hinton broth, CLSI; for MIC: Staphylococcus aureus, NEWMAN, read-out: MIC on Sa. On the procedure: MICs were determined in Mueller–Hinton (MH) broth according to CLSI guidelines and were repeated at least on three different occasions.
The Newman strain ofS. aureus and the UCBPP-PA14 strain ofP. aeruginosa were used in this study.

The subject of assay [2] is Mycobacterium marinum (Mm) in broth. The assay can be described thus: Mm growth in broth (antibiotic assay, luminescence). It is filed as cell-based. The conditions noted are these: 72 h; for IC50 on Mm in broth: Mm in 7H9 broth, luminescence at 32 °C, IC50 interpolated; for pIC50: Mycobacterium marinum, read-out: IC50 on Mm in broth. How it is done: Plant extracts, fractions, or isolated compounds were stored at −20 °C and wrapped in aluminum foil if necessary. All manipulations with extracts, fractions, or compounds were performed under a sterile hood. […] Extracts, fractions, or compounds were added to the assay plate in a 1:100 dilution. Assay solutions of extracts, fractions, and compounds were prepared in 96-well plates, stored at −20 °C, and thawed before the experiment at room temperature or warmer with or without shaking/vortexing to obtain a clear assay solution. Extracts were tested at 25 μg/mL and purified compounds in a dose–response curve of 6 concentrations with 100 μM being the top concentration and a 1:3 dilution step between each testing concentration. Since fractions were not weighed individually, the injection mass was used to calculate an average mass per fraction and thus a nominal mass concentration. Fractions were tested at a nominal concentration of 10 μg/mL.
For testing bacteria in broth, the preculture was diluted to a bacterial density of 3.75 × 10^5 bacteria per mL in 7H9 medium. Plating bacteria and compounds or fractions was performed analogously to the infection assay described above. Bacteria growth was monitored with the Agilent BioTek H1 plate reader by recording luminescence at 32 °C.
For both assays, growth curves were obtained by measuring the luminescence and fluorescence as a proxy for bacterial growth and host growth, respectively, for 72 h with time-points taken every hour. The “normalized residual growth” was computed by calculating the area under the curve (AUC, trapezoid method) and normalizing it to the vehicle control (0.3% DMSO, set at 1) and a baseline curve (set at 0). The baseline curve was calculated by taking the median of the first measurement of all wells in a plate and extrapolating it over the complete time course. The threshold for hit detection was arbitrarily fixed at a cutoff of normalized residual growth ≤0.5.
This procedure was also applied to screening extracts with slight modifications. The day before the experiment we preplated 10 μL of HL5-C using a dispenser (Thermo Multidrop), subsequently we preplated 2.2 μL of dissolved extracts from 96-well plates into quadrants 1, 2, and 3 of 384-well plates, whereas quadrant 4 was used for positive and vehicle controls. Preplating of extracts was performed using a liquid handler (Agilent Bravo). In total, 24 extract plates were distributed in triplicate into […] 384-well plates, amounting to 24 assay plates. The prepared plates were sealed and stored at 4 °C overnight. On the day of the experiment, nine 10 cm Petri dishes were infected (as described before) and grouped into three pools. The cell suspension was adjusted to 10^6 cells/mL, and 10 μL was plated into the 24 assay plates, resulting in 10^4 cells per well, as used for conventional infection experiments. Plates were sealed and placed in the plate stacker that supplied the plate reader. The same procedure was used to screen the same extracts on Mm in a broth. For both assays, the first time points and a time point after 72 h were recorded. Subsequently, we normalized the end point, first with the median of the full assay plate at the first time point and second with the end point of the vehicle controls in the respective assay plate.
For IC50 estimation, we used a rudimentary approach of interpolating the sample concentration between the two normalized residual growth values, which were closest to a value of 0.5.

Assay [3] relates to Mycobacterium marinum (Mm) in infection of Dictyostelium discoideum. The assay can be described thus: Dd-Mm infection assay: intracellular Mm growth (luminescence). The settings on record: for pIC50: Mm inside Dd, luminescence AUC over 72 h at 25 °C, 6-concentration curve, top 100 μM, 1:3 steps, IC50 interpolated. It is filed as cell-based. On the procedure: (§1) Plant extracts, fractions, or isolated compounds were stored at −20 °C and wrapped in aluminum foil if necessary. All manipulations with extracts, fractions, or compounds were performed under a sterile hood. Extracts, fractions, and compounds were resuspended throughout in DMSO to best solubilize extracts with diverse constituents. Extracts, fractions, or compounds were added to the assay plate in a 1:100 dilution. Assay solutions of extracts, fractions, and compounds were prepared in 96-well plates, stored at −20 °C, and thawed before the experiment at room temperature or warmer with or without shaking/vortexing to obtain a clear assay solution. Extracts were tested at 25 μg/mL and purified compounds in a dose–response curve of 6 concentrations with 100 μM being the top concentration and a 1:3 dilution step between each testing concentration. Since fractions were not weighed individually, the injection mass was used to calculate an average mass per fraction and thus a nominal mass concentration. Fractions were tested at a nominal concentration of 10 μg/mL.
(§2) As described in Nitschke et al. and Mottet et al., Dd Ax2(ka) expressing mCherry from the act5 chromosomal locus was infected with Mm M strain expressing the lux operon (luxCDABE) , by spinoculation.
(§3) Briefly, the day before the experiment, Mm was cultivated in 7H9 broth (Becton Dickinson, Difco Middlebrook 7H9) supplemented with 10% OADC (Becton Dickinson) and 0.05% tyloxapol (Sigma-Aldrich) and 50 μg/mL kanamycin at 32 °C overnight with continuous shaking. Additionally, the day before the experiment, 10^7 amoebae were plated in HL5-C in a 10 cm Petri dish (Falcon). On the day of the experiment, a volume of the Mm culture corresponding to a multiplicity of infection of 25 with respect to the number of amoebae in the Petri dish was added to the semiconfluent amoebae monolayer. Subsequently, the Petri dishes were centrifuged twice at 500g, as described in Mottet et al. To remove extracellular bacteria, dishes were rinsed with fresh HL5-C, and the infected cell population was resuspended in HL5-C with 5 U/mL penicillin and 5 μg/mL streptomycin (Gibco) to inhibit the extracellular growth of bacteria during the course of the experiment.
(§4) For testing fractions and purified compounds, 20 μL of infected cell suspension was plated into each well of a 384-well plate (Interchim FP-BA8240) to an effective cell number of 1 × 10^4 cells per well. Fractions or compounds including a vehicle control (0.3% DMSO final concentration) and a positive control (rifabutin, 10 μM final concentration) were added using an electronic multipipette (Sartorius). Subsequently, the well plates were sealed with a gas impermeable membrane (H769.1, Carl Roth), briefly centrifuged, and intracellular bacterial growth was monitored using an Agilent BioTek H1 plate reader and an Agilent BioTek BioStack plate stacker by recording luminescence over 72 h at 25 °C with readings taken every hour. Fluorescence was also recorded to monitor amoeba growth.
(§5) For both assays, growth curves were obtained by measuring the luminescence and fluorescence as a proxy for bacterial growth and host growth, respectively, for 72 h with time-points taken every hour. The “normalized residual growth” was computed by calculating the area under the curve (AUC, trapezoid method) and normalizing it to the vehicle control (0.3% DMSO, set at 1) and a baseline curve (set at 0). The baseline curve was calculated by taking the median of the first measurement of all wells in a plate and extrapolating it over the complete time course. The threshold for hit detection was arbitrarily fixed at a cutoff of normalized residual growth ≤0.5. Normalized values were averaged over technical and biological replicates (all experiments on isolated compounds have at least n = 3 and N = 3, whereas the primary extract screening and microfractions testing had values of n = 1 and N = 3). […]

Assay [4] relates to Dictyostelium discoideum (Dd) in infection. The assay can be described thus: Dd-Mm infection assay: host amoeba growth (fluorescence). It is filed as cell-based. The conditions noted are these: infected Dd, fluorescence AUC over 72 h at 25 °C, 6-concentration curve, top 100 μM, 1:3 steps, IC50 interpolated; for pIC50: Dictyostelium discoideum. How it is done:
as §1, §2, §3, §4, §5

The test system of assay [5] is Staphylococcus aureus (Sa) Newman strain. The conditions noted are these: literature report; reference number not shown in text; cited from earlier work.

The term MIC denotes the lowest concentration found to suppress growth. A word on the pIC50: it is the IC50 on a negative log10 scale, so that one unit is a factor of ten.

pIC50: −log10 of the molar value. Values after ≈ are worked out from the molar mass of the structure shown.

Consider `O=C(O)c1c(O)cccc1CCCCCCCCc1ccccc1` [Compound 10, Khookerianic acid C/Kneglobularic acid A], for which the MIC in assay [1] was determined as 8 µg/mL (≈ 24.5 µM). Moreover, the “IC50 on Mm in broth” value in assay [2] was “Not active”. The pIC50 in assay [3] and in assay [4] was 5.61 in each case.
Turning to `CCCCCCCCCCCc1cccc(O)c1C(=O)O` [Compound 11, Anagigantic acid], in assay [1], the MIC came out at 8 µg/mL (≈ 27.4 µM). Further, the “IC50 on Mm in broth” value in assay [2] is “Not active”. Also, the pIC50 in assay [3] and in assay [4] was 5.61 throughout.
On to `CCCCCCCCCCCCCc1cccc(O)c1C(=O)O` [Compound 12, 6-Tridecylsalicylic acid], for which, in assay [1], the “MIC on Sa” value is “Not active”. Also, the “IC50 on Mm in broth” value in assay [2] is reported as “Not active”. For the same compound, the pIC50 in assay [3] and in assay [4] was 4.18 in each case.
`CC(=O)c1ccc(O)cc1O` [Compound 13, 2,4-Dihydroxyacetophenone]: the “MIC on Sa” value in assay [1] is reported as “not active”. Further, the “IC50 on Mm in broth” value in assay [2] is on record as “not active”. Also, in assay [3], the pIC50 was 4.18. In addition, in assay [4], the “IC50 on Dd in infection” value is recorded as “not active”.
For the compound `CC(=O)c1ccc(O)c(Cl)c1O` [Compound 15, 3-Chloro-2,4-dihydroxyacetophenone], the “MIC on Sa” value in assay [1] was “not active”. Moreover, the “IC50 on Mm in broth” value in assay [2] is “not active”. Besides, the pIC50 in assay [3] and in assay [4] was 4.65 in each case.
On to `CC(=O)c1cc(Cl)c(O)cc1O` [Compound 16, 5-Chloro-2,4-dihydroxyacetophenone], for which the “MIC on Sa” value in assay [1] is “not active”. Besides, in assay [2], the “IC50 on Mm in broth” value is listed as “not active”. In addition, the pIC50 in assay [3] and in assay [4] was 4.65 in each case.
In the case of `CC(=O)c1cc(Cl)c(O)c(Cl)c1O` [Compound 17, 3,5-Dichloro-2,4-dihydroxyacetophenone], in assay [1], the “MIC on Sa” value is “not active”. Besides, the “IC50 on Mm in broth” value in assay [2] is “not active”. Further, the negative logarithm of the IC50 (pIC50) in assay [3] and in assay [4] was 4.18 each time.
In the case of `CC(=O)c1ccc(O)c(Br)c1O` [Compound 18, 3-Bromo-2,4-dihydroxyacetophenone], the “MIC on Sa” value in assay [1] is recorded as “not active”. Further, the “IC50 on Mm in broth” value in assay [2] is reported as “not active”. Also, the negative-log IC50 (pIC50) in assay [3] and in assay [4] was 4.18 in each case.
With `CC(=O)c1cc(Br)c(O)cc1O` [Compound 19, 5-Bromo-2,4-dihydroxyacetophenone], in assay [1], the “MIC on Sa” value is recorded as “not active”. The “IC50 on Mm in broth” value in assay [2] is recorded as “not active”. Besides, the results for the pIC50 in assay [3] and in assay [4] were 4.18 and 4.65, respectively.
For the compound `CC(=O)c1cc(Br)c(O)c(Br)c1O` [Compound 20, 3,5-Dibromo-2,4-dihydroxyacetophenone], the “MIC on Sa” value in assay [1] is recorded as “not active”. In addition, in assay [2], the “IC50 on Mm in broth” value was “not active”. Besides, the pIC50 in assay [3] and in assay [4] was 4.18 in each case.
With `O=C(/C=C/c1cccc2ccccc12)c1cc(Cl)c(O)cc1O` [Compound 26, (E)-1-(5-Chloro-2,4-dihydroxyphenyl)-3-(naphthalen-1-yl)prop-2-en-1-one], the “MIC on Sa” value in assay [1] is on record as “not active”. The results for the pIC50 in assay [2], in assay [3] and in assay [4] were 4.32, 6.23 and 5.83, respectively.
Consider `O=C(/C=C/c1c2ccccc2cc2ccccc12)c1cc(Cl)c(O)cc1O` [Compound 27, (E)-3-(Anthracen-9-yl)-1-(5-chloro-2,4-dihydroxyphenyl)prop-2-en-1-one], for which, in assay [1], the “MIC on Sa” value is listed as 2 mg·L–1 and the minimum inhibitory concentration (MIC) is 2 µg/mL (≈ 5.34 µM). Besides, the “IC50 on Mm in broth” value in assay [2] is “not active”. For the same compound, the pIC50 in assay [3] is 6.23. Besides, the “specificity window (IC50 on Dd vs IC50 on intracellular Mm)” value in assay [3] (ratio of IC50 against Dd growth to IC50 on intracellular Mm) amounted to 25 fold. The compound further gave a pIC50 in assay [4] of 4.80.
With `CC(=O)c1c(O)cc(O)c(Cl)c1CCCCCCc1ccccc1` [Compound 28, 1-(3-Chloro-4,6-dihydroxy-2-(6-phenylhexyl)phenyl)ethan-1-one], in assay [1], the MIC stood at 4 µg/mL (≈ 11.5 µM). Moreover, the pIC50 is 4.65 in assay [2], 5.61 in assay [3] and 6.09 in assay [4].
Turning to `CC(=O)c1c(O)c(Cl)c(O)c(Cl)c1CCCCCCc1ccccc1` [Compound 29, 1-(3,5-Dichloro-2,4-dihydroxy-6-(6-phenylhexyl)phenyl)ethan-1-one], the minimum inhibitory concentration (MIC) in assay [1] is 4 to 8 µg/mL (≈ 10.5 to 21 µM). In assay [2], the “IC50 on Mm in broth” value is on record as “not active”. The figures for the negative logarithm of the IC50 (pIC50) in assay [3] and in assay [4] were 5.61 and 5.13, respectively.
Consider `CCCCCCCCCCCCCCCc1cccc(O)c1C(=O)O` [anacardic acid], for which the “MIC on Sa” value was found to be 16 mg·L–1 in assay [1] and 16 μg·mL^–1 in assay [1] (listed as Anacardic acid). Also, in assay [2], the “IC50 on Mm in broth” value was “not active”. For the same compound, in assay [3], the negative-log IC50 (pIC50) was 4.65. Also, the “IC50 on Dd in infection” value in assay [4] is listed as “not active”. In addition, in assay [5], the “active dose against Sa (already reported)” value is 25 μg mL^–1.

The values above are taken from article PMC12371487, “Phenylalkyl Acetophenones and Anacardic Acids from Knema oblongifolia with Synthetic Analogues as Anti-infectives and Antibacterial Agents” (ACS Bio & Med Chem Au, 2025).
